Counter-ions that a name gives are not always drawn.
The compounds below were run against recombinant Human Phosphodiesterase B2 (PDE4B2) (Homo sapiens, UniProt Q07343) (assay: Human Phosphodiesterase B2 Radiometric Assay (yttrium silicate SPA beads, [3H]cyclic AMP)). Conditions: recombinant human PDE4B2, radiometric SPA assay, 8 nM [3H]cyclic AMP; read-out: PDE4B2 pIC50 (converted).
Format: biochemical
Summary of the method: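 Read-out is scintillation proximity: yttrium silicate beads (with 18 mM ZnSO4, added to stop the reaction) bind 5′AMP formed from 8 nM [3H]cAMP over 20 min. Beforehand, compound and 0.1 mg/mL enzyme were preincubated 30 min at 30 °C in pH 7.5 HEPES buffer with MgCl2, EGTA and Brij 35; pIC50 values were curve-fitted.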

recombinant Human Phosphodiesterase B2 (PDE4B2), sequence (Q07343 1-564 isoform Q07343-2): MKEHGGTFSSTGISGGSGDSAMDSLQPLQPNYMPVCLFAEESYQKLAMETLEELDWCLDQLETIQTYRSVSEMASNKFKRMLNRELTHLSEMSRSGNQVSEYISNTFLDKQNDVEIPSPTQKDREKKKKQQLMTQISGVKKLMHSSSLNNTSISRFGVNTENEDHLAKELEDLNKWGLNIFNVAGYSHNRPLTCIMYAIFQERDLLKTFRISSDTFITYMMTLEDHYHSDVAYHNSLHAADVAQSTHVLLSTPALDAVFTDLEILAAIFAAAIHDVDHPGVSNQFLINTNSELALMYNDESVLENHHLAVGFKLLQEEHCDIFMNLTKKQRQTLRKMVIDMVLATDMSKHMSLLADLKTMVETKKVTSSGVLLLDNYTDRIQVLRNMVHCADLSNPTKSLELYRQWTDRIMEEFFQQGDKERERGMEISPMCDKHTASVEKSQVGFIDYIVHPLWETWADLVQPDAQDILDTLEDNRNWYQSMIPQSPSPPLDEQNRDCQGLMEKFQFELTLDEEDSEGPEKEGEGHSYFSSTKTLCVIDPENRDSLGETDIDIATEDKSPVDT

With `Cc1cccc2nc(C(=O)N[C@H]3CC[C@@H](n4c(=O)c5cc(F)cnc5n(-c5cccc(-c6ccc(CN7CCNCC7)cc6)c5)c4=O)CC3)cn12` [Example 111, N-{cis-4-[6-fluoro-2,4-dioxo-1-[4′-(piperazin-1-ylmethyl)biphenyl-3-yl]-1,4-dihydropyrido[2,3-d]pyrimidin-3(2H)-yl]cyclohexyl}-5-methylimidazo[1,2-a]pyridine-2-carboxamide] as the compound, how does the IC50 read?
Its IC50 is 0.0126 nM.

`CN(Cc1ccc(-c2cccc(-n3c(=O)n([C@H]4CC[C@@H](NC(=O)c5cn6c(n5)CCCC6)CC4)c(=O)c4cc(F)cnc43)c2)cc1)C(C)(C)C` [Example 136, N-{cis-4-[1-(4′-{[tert-butyl(methyl)amino]methyl}biphenyl-3-yl)-6-fluoro-2,4-dioxo-1,4-dihydropyrido[2,3-d]pyrimidin-3(2H)-yl]cyclohexyl}-5,6,7,8-tetrahydroimidazo[1,2-a]pyridine-2-carboxamide] was tested. Which IC50 did it give?
Its IC50 is 0.0316 nM.

For `CN1CCCN(Cc2ccc(-c3cccc(-n4c(=O)n([C@H]5CC[C@@H](NC(=O)c6nc7ccccc7[nH]c6=O)CC5)c(=O)c5cc(F)cnc54)c3)cc2)CC1` [Example 360, N-{cis-4-[6-fluoro-1-{4′-[(4-methyl-1,4-diazepan-1-yl)methyl]biphenyl-3-yl}-2,4-dioxo-1,4-dihydropyrido[2,3-d]pyrimidin-3(2H)-yl]cyclohexyl}-3-oxo-3,4-dihydroquinoxaline-2-carboxamide], which IC50 is on record?
Its IC50 is 0.0398 nM.

For `CN1CCN(Cc2cc(O)ccc2-c2cccc(-n3c(=O)n([C@H]4CC[C@@H](NC(=O)c5cn6cc(F)ccc6n5)CC4)c(=O)c4cc(F)cnc43)c2)CC1` [Example 71, 6-fluoro-N-{cis-4-[6-fluoro-1-{4′-hydroxy-2′-[(4-methylpiperazin-1-yl)methyl]biphenyl-3-yl}-2,4-dioxo-1,4-dihydropyrido[2,3-d]pyrimidin-3(2H)-yl]cyclohexyl}imidazo[1,2-a]pyridine-2-carboxamide trifluoroacetate salt], which IC50 is on record?
The IC50 was 0.0794 nM.

With `CC(=O)N1CCN(Cc2ccc(-c3cccc(-n4c(=O)n([C@H]5CC[C@@H](NC(=O)c6cn7c(n6)CCCC7)CC5)c(=O)c5cc(F)cnc54)c3)cc2)CC1` [Example 218, N-{cis-4-[1-{4′-[(4-acetylpiperazin-1-yl)methyl]biphenyl-3-yl}-6-fluoro-2,4-dioxo-1,4-dihydropyrido[2,3-d]pyrimidin-3(2H)-yl]cyclohexyl}-5,6,7,8-tetrahydroimidazo[1,2-a]pyridine-2-carboxamide] as the compound, how does the IC50 read?
Its IC50 is 0.00631 nM.

How did the IC50 turn out when `Cc1cccc(C(=O)N[C@H]2CC[C@@H](n3c(=O)c4cc(F)cnc4n(-c4cccc(-c5ccc(CN6CCN(C(C)C)CC6)cc5)c4)c3=O)CC2)n1` [Example 242, N-{cis-4-[6-fluoro-1-{4′-[(4-isopropylpiperazin-1-yl)methyl]biphenyl-3-yl}-2,4-dioxo-1,4-di-hydropyrido[2,3-d]pyrimidin-3(2H)-yl]cyclohexyl}-6-methyl-pyridine-2-carboxamide] was run?
The IC50 was 0.00631 nM.

`O=c1c2cc(F)cnc2n(-c2cccc(-c3ccc(O)cc3CN3CCCCC3)c2)c(=O)n1[C@H]1CC[C@@H](NCc2cn3cc(F)ccc3n2)CC1` [Example 255, 6-Fluoro-3-(cis-4-{[(6-fluoroimidazo[1,2-c]pyridin-2-yl)methyl]amino}cyclohexyl)-1-[4′-hydroxy-2′-(piperidin-1-ylmethyl)biphenyl-3-yl]pyrido[2,3-d]pyrimidine-2,4(1H,3H)-dione] was tested. Which IC50 did it give?
Its IC50 is 0.126 nM.

How did the IC50 turn out when `O=C(N[C@H]1CC[C@@H](n2c(=O)c3cc(F)cnc3n(-c3cccc(-c4ccc(CCCO)cc4)c3)c2=O)CC1)c1cn2cc(F)ccc2n1` [Example 20, 6-fluoro-N-{cis-4-[6-fluoro-1-[4′-(3-hydroxypropyl)biphenyl-3-yl]-2,4-dioxo-1,4-dihydropyrido[2,3-d]pyrimidin-3(2H)-yl]cyclohexyl}imidazo[1,2-a]pyridine-2-carboxamide.] was run?
The IC50 was 0.02 nM.

With `CC(C)C(=O)N[C@H]1CC[C@@H](n2c(=O)c3cc(F)cnc3n(-c3cccc(-c4ccc(CN5CCN(C(C)C)CC5)cc4)c3)c2=O)CC1` [Example 238, N-{cis-4-[6-fluoro-1-{4′-[(4-isopropylpiperazin-1-yl)methyl]biphenyl-3-yl}-2,4-dioxo-1,4-di-hydropyrido[2,3-d]pyrimidin-3(2H)-yl]cyclohexyl}-2-methyl-propanamide] as the compound, how does the IC50 read?
Its IC50 is 0.2 nM.

`CN(C)Cc1ccccc1-c1cccc(-n2c(=O)n([C@H]3CC[C@@H](NC(=O)[C@H]4CCCN4C)CC3)c(=O)c3cc(F)cnc32)c1` [Example 88, N-{cis-4-[1-{2′-[(dimethylamino)methyl]biphenyl-3-yl}-6-fluoro-2,4-dioxo-1,4-dihydropyrido[2,3-d]pyrimidin-3(2H)-yl]cyclohexyl}-1-methyl-D-prolinamide] was tested. Which IC50 did it give?
Its IC50 is 50.1 nM.

Which IC50 does the source give for `O=c1c2cc(F)cnc2n(-c2cccc(-c3ccc(O)cc3CN3CCC[C@@H]3CO)c2)c(=O)n1[C@H]1CC[C@@H](NCc2cn3cc(F)ccc3n2)CC1` [Example 332, 6-fluoro-3-(cis-4-{[(6-fluoroimidazo[1,2-a]pyridin-2-yl)methyl]amino}cyclohexyl)-1-(4′-hydroxy-2′-{[(2R)-2-(hydroxymethyl)pyrrolidin-1-yl]methyl}biphenyl-3-yl)pyrido[2,3-d]pyrimidine-2,4(1H,3H)-dione] here?
The IC50 was 0.0501 nM.

With `O=C(N[C@H]1CC[C@@H](n2c(=O)c3cc(F)cnc3n(-c3cccc(-c4ccc(CCN5CCNCC5)cc4)c3)c2=O)CC1)c1cn2cc(F)ccc2n1` [Example 102, 6-fluoro-N-{cis-4-[6-fluoro-2,4-dioxo-1-[4′-(2-piperazin-1-ylethyl)biphenyl-3-yl]-1,4-dihydropyrido[2,3-d]pyrimidin-3 (2H)-yl]cyclohexyl}imidazo[1,2-c]pyridine-2-carboxamide] as the compound, how does the IC50 read?
Its IC50 is 0.00794 nM.

With `C[C@H](CO)N(C)Cc1cc(O)ccc1-c1cccc(-n2c(=O)n([C@H]3CC[C@@H](NCc4cn5cc(F)ccc5n4)CC3)c(=O)c3cc(F)cnc32)c1` [Example 319, 6-fluoro-3-(cis-4-{[(6-fluoroimidazo[1,2-a]pyridin-2-yl)methyl]amino}cyclohexyl)-1-(4′-hydroxy-2′-{[[(1R)-2-hydroxy-1-methylethyl](methyl)amino]methyl}biphenyl-3-yl)pyrido[2,3-d]pyrimidine-2,4(1H,3H)-dione] as the compound, how does the IC50 read?
Its IC50 is 0.631 nM.

For `CSc1ccccc1-c1cccc(-n2c(=O)n([C@H]3CC[C@@H](NC(=O)c4cn5cc(F)ccc5n4)CC3)c(=O)c3cc(F)cnc32)c1` [Example 17, 6-fluoro-N-{cis-4-[6-fluoro-1-[2′-(methylthio)biphenyl-3-yl]-2,4-dioxo-1,4-dihydropyrido[2,3-d]pyrimidin-3(2H)-yl]cyclohexyl}imidazo[1,2-a]pyridine-2-carboxamide.], which IC50 is on record?
Its IC50 is 0.00794 nM.

For `Cc1cccc(C(=O)N[C@H]2CC[C@@H](n3c(=O)c4cc(F)cnc4n(-c4cccc(-c5ccc(CN6CCCNCC6)cc5)c4)c3=O)CC2)n1` [Example 356, N-{cis-4-[1-[4′-(1,4-diazepan-1-ylmethyl)biphenyl-3-yl]-6-fluoro-2,4-dioxo-1,4-dihydropyrido[2,3-d]pyrimidin-3(2H)-yl]cyclohexyl}-6-methylpyridine-2-carboxamide], which IC50 is on record?
The IC50 was 0.0631 nM.

`O=C(N[C@H]1CC[C@@H](n2c(=O)c3cc(F)cnc3n(-c3cccc(-c4ccc(CCCNCCCO)cc4)c3)c2=O)CC1)c1cn2cc(F)ccc2n1` [Example 96, 6-fluoro-N-{cis-4-[6-fluoro-1-(4′-{3-[(3-hydroxypropyl)amino]propyl}biphenyl-3-yl)-2,4-dioxo-1,4-dihydropyrido[2,3-d]pyrimidin-3(2H)-yl]cyclohexyl}imidazo[1,2-a]pyridine-2-carboxamide] was tested. Which IC50 did it give?
Its IC50 is 0.0126 nM.
